# According to US9844536B2, “3-(1H-imidazo[4,5-C]pyridin-2-yl)-1H-pyrazolo[3,4-C]pyridine and therapeutic uses thereof” (Samumed, LLC, priority 2014, dated 2017):
# Test system: Wnt pathway (Sp5-Luc reporter, SW480 cells)
# Assay: Sp5-Luc reporter gene screening assay for Wnt activity in SW480 colon carcinoma cells
# Format: cell-based
# Settings: Homo sapiens
# Excerpt: The screening assay for Wnt activity is described as follows. Reporter cell lines can be generated by stably transducing cancer cell lines (e.g., colon cancer) or primary cells (e.g., IEC-6 intestinal cells) with a lentiviral construct that includes a Wnt-responsive promoter driving expression of the firefly luciferase gene.
# SW480 colon carcinoma cells were transduced with a lentiviral vector expressing luciferase with a human Sp5 promoter consisting of a sequence of eight TCF/LEF binding sites. SW480 cells stably expressing the Sp5-Luc reporter gene and a hygromycin resistance gene were selected by treatment with 150 μg/ml of hygromycin for 7 days. These stably transduced SW480 cells were expanded in cell culture and used for all further screening activities. For Sp5-Luc reporter gene assays, the cells were plated at 10,000 cells/well in 96-well plates with growth medium containing 10% fetal calf serum and incubated overnight at 37° C. and 5% CO2. Each compound was dissolved in DMSO as a 10 mM stock in standard j-vials and used to prepare compound source plates in dose-response format with 3-fold serial dilutions and a 10 mM top concentration. Compound transfer from serially diluted source plates to assay plates containing the cells was accomplished using a pintool (Multimek 96, Beckman equipped with V&P Scientific FP1S50H pins) based liquid handling protocol. This protocol used a slotted pin to transfer 50 nl of compound from a source plate well to an assay plate well containing 50 μl of cells in growth medium. […] Control wells received 50 nl of DMSO treatment for normalization and calculating IC50 values. The treated cells were incubated at 37° C. and 5% CO2 for an additional forty-two hours. Following incubation, the growth medium was removed and 50 μl of BrightGlo luminescence reagent (Promega) was added to each well of the 96-well assay plates. The plates were placed on an orbital shaker for 5 min and then luminescence was quantified on the Victor3 (Perkin Elmer) plate reader. Readings were normalized to DMSO only treated cells, and normalized activities were utilized for IC50 calculations using the dose-response log (inhibitor) vs. response-variable slope (four parameters) nonlinear regression feature available in GraphPad Prism 5.0 or 6.0.
row,Compound,IC50
1,"CCC(=O)Nc1cncc(-c2cc3c(-c4nc5c(-c6cccc(F)c6)nccc5[nH]4)n[nH]c3cn2)c1 [Compound 1, N-(5-(3-(4-(3-Fluorophenyl)-1H-imidazo[4,5-c]pyridin-2-yl)-1H-pyrazolo[3,4-c]pyridin-5-yl)pyridin-3-yl)propionamide]",34.1 nM
2,"CCCC(=O)Nc1cncc(-c2cc3c(-c4nc5c(-c6ccc(F)cc6)nccc5[nH]4)n[nH]c3cn2)c1 [Compound 43, N-(5-(3-(4-(4-Fluorophenyl)-1H-imidazo[4,5-c]pyridin-2-yl)-1H-pyrazolo[3,4-c]pyridin-5-yl)pyridin-3-yl)butyramide]",130 nM
3,"CC(C)CC(=O)Nc1cncc(-c2cc3c(-c4nc5c(-c6ccccc6F)nccc5[nH]4)n[nH]c3cn2)c1 [Compound 54, N-(5-(3-(4-(2-Fluorophenyl)-1H-imidazo[4,5-c]pyridin-2-yl)-1H-pyrazolo[3,4-c]pyridin-5-yl)pyridin-3-yl)-3-methylbutanamide]",47.6 nM
4,"CC(C)(C)CC(=O)Nc1cncc(-c2cc3c(-c4nc5c(-c6ccccc6F)nccc5[nH]4)n[nH]c3cn2)c1 [Compound 68, N-(5-(3-(4-(2-Fluorophenyl)-1H-imidazo[4,5-c]pyridin-2-yl)-1H-pyrazolo[3,4-c]pyridin-5-yl)pyridin-3-yl)-3,3-dimethylbutanamide]",920 nM
5,"CCCC(=O)Nc1cncc(-c2cc3c(-c4nc5c(-c6ccccc6F)nccc5[nH]4)n[nH]c3cn2)c1 [Compound 69, N-(5-(3-(4-(2-Fluorophenyl)-1H-imidazo[4,5-c]pyridin-2-yl)-1H-pyrazolo[3,4-c]pyridin-5-yl)pyridin-3-yl)butyramide]",33.4 nM
6,"c1cncc(-c2nccc3[nH]c(-c4n[nH]c5cnc(-c6cncc(CN7CCCCC7)c6)cc45)nc23)c1 [Compound 93, 5-(5-(Piperidin-1-ylmethyl)pyridin-3-yl)-3-(4-(pyridin-3-yl)-1H-imidazo[4,5-c]pyridin-2-yl)-1H-pyrazolo[3,4-c]pyridine]",> 10000 nM
7,"c1ccc(CNCc2cncc(-c3cc4c(-c5nc6c(-c7cccnc7)nccc6[nH]5)n[nH]c4cn3)c2)cc1 [Compound 101, N-Benzyl-1-(5-(3-(4-(pyridin-3-yl)-1H-imidazo[4,5-c]pyridin-2-yl)-1H-pyrazolo[3,4-c]pyridin-5-yl)pyridin-3-yl)methanamine]",51.3 nM
8,"CCCCC(=O)Nc1cncc(-c2cc3c(-c4nc5c(-c6ccccn6)nccc5[nH]4)n[nH]c3cn2)c1 [Compound 148, N-(5-(3-(4-(Pyridin-2-yl)-1H-imidazo[4,5-c]pyridin-2-yl)-1H-pyrazolo[3,4-c]pyridin-5-yl)pyridin-3-yl)pentanamide]",199 nM
9,"CC(C)(C)C(=O)Nc1cncc(-c2cc3c(-c4nc5c(N6CCCCC6)nccc5[nH]4)n[nH]c3cn2)c1 [Compound 164, N-(5-(3-(4-(Piperidin-1-yl)-1H-imidazo[4,5-c]pyridin-2-yl)-1H-pyrazolo[3,4-c]pyridin-5-yl)pyridin-3-yl)pivalamide]",140 nM
10,Cc1cn(-c2nccc3[nH]c(-c4n[nH]c5cnc(-c6cncc(NC(=O)CC(C)C)c6)cc45)nc23)cn1 [Compound 184],41 nM
11,"CN1CCN(c2nccc3[nH]c(-c4n[nH]c5cnc(-c6cncc(N)c6)cc45)nc23)CC1 [Compound 211, 5-(3-(4-(4-Methylpiperazin-1-yl)-1H-imidazo[4,5-c]pyridin-2-yl)-1H-pyrazolo[3,4-c]pyridin-5-yl)pyridin-3-amine]",118 nM
12,"CC(C)(C)CC(=O)Nc1cncc(-c2cc3c(-c4nc5cnccc5[nH]4)n[nH]c3cn2)c1 [Compound 250, N-(5-(3-(1H-Imidazo[4,5-c]pyridin-2-yl)-1H-pyrazolo[3,4-c]pyridin-5-yl)pyridin-3-yl)-3,3-dimethylbutanamide]",> 10000 nM
13,"CC(C)(C)C(=O)Nc1cncc(-c2cc3c(-c4nc5c(-c6ccoc6)nccc5[nH]4)n[nH]c3cn2)c1 [Compound 294, N-(5-(3-(4-(Furan-3-yl)-1H-imidazo[4,5-c]pyridin-2-yl)-1H-pyrazolo[3,4-c]pyridin-5-yl)pyridin-3-yl)pivalamide]",38.7 nM
14,"CCC(=O)Nc1cncc(-c2cc3c(-c4nc5c(-c6cccs6)nccc5[nH]4)n[nH]c3cn2)c1 [Compound 313, N-(5-(3-(4-(Thiophen-2-yl)-1H-imidazo[4,5-c]pyridin-2-yl)-1H-pyrazolo[3,4-c]pyridin-5-yl)pyridin-3-yl)propionamide]",28.6 nM
15,"CC(C)CC(=O)Nc1cncc(-c2cc3c(-c4nc5c(-c6cccs6)nccc5[nH]4)n[nH]c3cn2)c1 [Compound 314, 3-Methyl-N-(5-(3-(4-(thiophen-2-yl)-1H-imidazo[4,5-c]pyridin-2-yl)-1H-pyrazolo[3,4-c]pyridin-5-yl)pyridin-3-yl)butanamide]",359 nM
16,"O=C(Nc1cncc(-c2cc3c(-c4nc5c(-c6cccs6)nccc5[nH]4)n[nH]c3cn2)c1)C1CCC1 [Compound 332, N-(5-(3-(4-(Thiophen-2-yl)-1H-imidazo[4,5-c]pyridin-2-yl)-1H-pyrazolo[3,4-c]pyridin-5-yl)pyridin-3-yl)cyclobutanecarboxamide]",37.8 nM
17,"Fc1cccc(-c2nccc3[nH]c(-c4n[nH]c5cnc(-c6cncc(OC7CCCCC7)c6)cc45)nc23)c1 [Compound 943, 5-(5-(Cyclohexyloxy)pyridin-3-yl)-3-(4-(3-fluorophenyl)-1H-imidazo[4,5-c]pyridin-2-yl)-1H-pyrazolo[3,4-c]pyridine]",255 nM
18,"Fc1cccc(-c2nccc3[nH]c(-c4n[nH]c5cnc(-c6cncc(OC7CCNCC7)c6)cc45)nc23)c1 [Compound 944, 3-(4-(3-Fluorophenyl)-1H-imidazo[4,5-c]pyridin-2-yl)-5-(5-(piperidin-4-yloxy)pyridin-3-yl)-1H-pyrazolo[3,4-c]pyridine]",> 10000 nM
19,"Fc1cccc(-c2nccc3[nH]c(-c4n[nH]c5cnc(-c6cncc(OCCN7CCCC7)c6)cc45)nc23)c1 [Compound 946, 3-(4-(3-Fluorophenyl)-1H-imidazo[4,5-c]pyridin-2-yl)-5-(5-(2-(pyrrolidin-1-yl)ethoxy)pyridin-3-yl)-1H-pyrazolo[3,4-c]pyridine]",> 10000 nM
20,"Fc1cccc(-c2nccc3[nH]c(-c4n[nH]c5cnc(-c6cncc(OCc7ccccc7)c6)cc45)nc23)c1 [Compound 950, 5-(5-(Benzyloxy)pyridin-3-yl)-3-(4-(3-fluorophenyl)-1H-imidazo[4,5-c]pyridin-2-yl)-1H-pyrazolo[3,4-c]pyridine]",2010 nM
21,"O=C(CC1CCCCC1)Nc1cncc(-c2cc3c(-c4nc5c(-c6cccc(F)c6)nccc5[nH]4)n[nH]c3cn2)c1 [Compound 951, 2-Cyclohexyl-N-(5-(3-(4-(3-fluorophenyl)-1H-imidazo[4,5-c]pyridin-2-yl)-1H-pyrazolo[3,4-c]pyridin-5-yl)pyridin-3-yl)acetamide]",1040 nM
22,"Fc1cccc(-c2nccc3[nH]c(-c4n[nH]c5cnc(-c6ccncc6)cc45)nc23)c1 [Compound 952, 3-(4-(3-Fluorophenyl)-1H-imidazo[4,5-c]pyridin-2-yl)-5-(pyridin-4-yl)-1H-pyrazolo[3,4-c]pyridine]",32 nM
23,"CC(C)CC(=O)Nc1cncc(-c2cc3c(-c4nc5c(-c6cc(F)cc(OCCN(C)C)c6)nccc5[nH]4)n[nH]c3cn2)c1 [Compound 1262, N-(5-(3-(4-(3-(2-(Dimethylamino)ethoxy)-5-fluorophenyl)-1H-imidazo[4,5-c]pyridin-2-yl)-1H-pyrazolo[3,4-c]pyridin-5-yl)pyridin-3-yl)-3-methylbutanamide]",2060 nM
24,"CC(C)CC(=O)Nc1cncc(-c2cc3c(-c4nc5c(-c6cc(F)cc(OCCN7CCCC7)c6)nccc5[nH]4)n[nH]c3cn2)c1 [Compound 1306, N-(5-(3-(4-(3-Fluoro-5-(2-(pyrrolidin-1-yl)ethoxy)phenyl)-1H-imidazo[4,5-c]pyridin-2-yl)-1H-pyrazolo[3,4-c]pyridin-5-yl)pyridin-3-yl)-3-methylbutanamide]",4220 nM
